Source: patent US8481750B2 (Boehringer Ingelheim International GmbH, priority 2009, dated 2013)

Biological target: LFA-1 binding to ICAM-1 (Homo sapiens, UniProt P05107+P20701)
Test: Inhibition of LFA-1 binding to ICAM-1 (LFA-1/Biotin-sICAM-1 AlphaScreen molecular assay)
Settings: highest compound concentration 1 μM in 1% DMSO, 37° C., 90 minutes
Method in brief: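 AlphaScreen binding of purified LFA-1 to biotinylated sICAM-1 in DPBS with Ca/Mg, 2 mM MgCl2, 0.1% BSA, pH 7.1; compound top concentration 1 μM in 1% DMSO, 90 min at 37 °C. Detection with TS2/4 anti-LFA-1 acceptor beads (10 μg/mL final) and streptavidin donor beads (15 μg/mL final), room temperature in the dark.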

LFA-1 binding to ICAM-1, sequence (P20701 26-1170): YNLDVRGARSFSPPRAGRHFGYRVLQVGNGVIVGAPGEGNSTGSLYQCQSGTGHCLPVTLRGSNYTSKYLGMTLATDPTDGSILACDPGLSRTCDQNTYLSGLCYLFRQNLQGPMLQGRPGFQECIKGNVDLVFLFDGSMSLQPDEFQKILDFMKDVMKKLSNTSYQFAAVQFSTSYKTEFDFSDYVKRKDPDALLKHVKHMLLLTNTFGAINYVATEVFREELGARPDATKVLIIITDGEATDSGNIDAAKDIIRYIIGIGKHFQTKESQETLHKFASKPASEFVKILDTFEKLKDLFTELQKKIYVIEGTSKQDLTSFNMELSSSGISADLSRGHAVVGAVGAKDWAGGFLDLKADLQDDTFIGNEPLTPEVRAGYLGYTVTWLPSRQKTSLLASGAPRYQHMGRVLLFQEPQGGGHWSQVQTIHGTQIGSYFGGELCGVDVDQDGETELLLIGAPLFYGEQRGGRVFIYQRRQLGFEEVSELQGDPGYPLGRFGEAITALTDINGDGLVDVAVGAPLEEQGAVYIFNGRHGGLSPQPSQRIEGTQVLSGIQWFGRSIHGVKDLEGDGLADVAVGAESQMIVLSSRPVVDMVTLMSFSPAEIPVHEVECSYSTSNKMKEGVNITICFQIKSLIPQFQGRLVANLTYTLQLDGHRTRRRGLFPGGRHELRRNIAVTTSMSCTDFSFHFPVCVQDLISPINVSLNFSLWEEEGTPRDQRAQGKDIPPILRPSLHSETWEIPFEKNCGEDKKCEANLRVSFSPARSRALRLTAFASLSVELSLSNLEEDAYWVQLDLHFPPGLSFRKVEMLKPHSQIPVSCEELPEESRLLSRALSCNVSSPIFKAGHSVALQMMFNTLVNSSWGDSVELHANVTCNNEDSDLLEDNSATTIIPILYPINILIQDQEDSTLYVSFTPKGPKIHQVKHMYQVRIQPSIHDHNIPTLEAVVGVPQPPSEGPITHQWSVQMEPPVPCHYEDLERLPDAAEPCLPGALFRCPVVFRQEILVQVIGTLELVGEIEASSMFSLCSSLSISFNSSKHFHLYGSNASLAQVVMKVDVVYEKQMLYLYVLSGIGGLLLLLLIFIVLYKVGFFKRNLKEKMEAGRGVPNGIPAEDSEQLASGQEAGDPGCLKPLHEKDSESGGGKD
LFA-1 binding to ICAM-1, sequence (P05107 23-769): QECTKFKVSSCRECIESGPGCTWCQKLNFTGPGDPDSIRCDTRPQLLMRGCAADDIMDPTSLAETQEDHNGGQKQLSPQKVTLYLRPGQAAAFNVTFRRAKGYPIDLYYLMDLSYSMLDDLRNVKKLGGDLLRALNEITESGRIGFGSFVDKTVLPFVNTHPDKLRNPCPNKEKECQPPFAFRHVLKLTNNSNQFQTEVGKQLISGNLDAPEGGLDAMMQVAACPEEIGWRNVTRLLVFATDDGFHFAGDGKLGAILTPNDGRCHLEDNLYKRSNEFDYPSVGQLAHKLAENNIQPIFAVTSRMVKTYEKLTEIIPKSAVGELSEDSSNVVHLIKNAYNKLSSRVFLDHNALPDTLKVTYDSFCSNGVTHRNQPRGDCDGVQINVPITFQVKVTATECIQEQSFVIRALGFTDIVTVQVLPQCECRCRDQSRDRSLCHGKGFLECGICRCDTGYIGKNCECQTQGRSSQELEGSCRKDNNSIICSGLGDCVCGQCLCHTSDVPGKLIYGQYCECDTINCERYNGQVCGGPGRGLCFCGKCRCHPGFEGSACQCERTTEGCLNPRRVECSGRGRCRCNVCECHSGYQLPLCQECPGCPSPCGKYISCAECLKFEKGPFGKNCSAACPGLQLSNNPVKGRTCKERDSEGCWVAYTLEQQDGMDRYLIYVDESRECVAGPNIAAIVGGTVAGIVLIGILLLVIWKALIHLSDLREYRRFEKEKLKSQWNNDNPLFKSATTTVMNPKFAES

SMILES | IC50 [nM]
COCCNC(=O)c1ccnc(C2(NC(=O)C3(NC(=O)c4cnc5n4[C@](C)(Cc4ccc(C#N)cc4)C(=O)N5c4cc(Cl)cc(Cl)c4)CC3)CC2)c1 [compound 100] | 0.9
C[C@@]1(Cc2ccc(C#N)cc2)C(=O)N(c2cc(Cl)cc(Cl)c2)c2ncc(C(=O)NC3(C(=O)NC4(c5ccc(C(=O)NC(CO)CO)cn5)CC4)CC3)n21 [compound 66] | 0.28
CC(NC(=O)c1ccc(C2(NC(=O)C3(NC(=O)c4cnc5n4[C@](C)(Cc4ccc(C#N)cc4)C(=O)N5c4cc(Cl)cc(Cl)c4)CC3)CC2)nc1)c1ccccn1 (some centres unmarked) [compound 155] | 0.74
C[C@@]1(Cc2ccc(C#N)cc2)C(=O)N(c2cc(Cl)cc(Cl)c2)c2ncc(C(=O)NC3(C(=O)NC4(c5cc(C(=O)NCC(N)=O)ccn5)CC4)CC3)n21 [compound 172] | 0.84
CC(=O)NCCNC(=O)c1ccnc(C2(NC(=O)C3(NC(=O)c4cnc5n4[C@](C)(Cc4ccc(C#N)cc4)C(=O)N5c4cc(Cl)cc(Cl)c4)CC3)CC2)c1 [compound 132] | 0.37
COCCNC(=O)c1cccc(C2(NC(=O)C3(NC(=O)c4cnc5n4[C@](C)(Cc4ccc(C#N)cc4)C(=O)N5c4cc(Cl)cc(Cl)c4)CC3)CC2)n1 [compound 75] | 2.2
C[C@@]1(Cc2ccc(C#N)cc2)C(=O)N(c2cc(Cl)cc(Cl)c2)c2ncc(C(=O)NC3(C(=O)NC4(c5cccc(C(=O)N6CC[C@H](O)C6)n5)CC4)CC3)n21 [compound 143] | 0.53
C[C@@]1(Cc2ccc(C#N)cc2)C(=O)N(c2cc(Cl)cc(Cl)c2)c2ncc(C(=O)NC3(C(=O)NC4(c5ccc(C(=O)N6CCC(C(N)=O)CC6)cn5)CC4)CC3)n21 [compound 147] | 1.9
CC(=O)NC1CCN(C(=O)c2ccnc(C3(NC(=O)C4(NC(=O)c5cnc6n5[C@](C)(Cc5ccc(C#N)cc5)C(=O)N6c5cc(Cl)cc(Cl)c5)CC4)CC3)c2)C1 (some centres unmarked) [compound 54] | 1.2
CC(=O)NCCNC(=O)c1ccc(C2(NC(=O)C3(NC(=O)c4cnc5n4[C@](C)(Cc4ccc(C#N)cc4)C(=O)N5c4cc(Cl)cc(Cl)c4)CC3)CC2)nc1 [compound 121] | 0.37
C[C@@]1(Cc2ccc(C#N)cc2)C(=O)N(c2cc(Cl)cc(Cl)c2)c2ncc(C(=O)NC3(C(=O)NC4(c5cccc(C(=O)N6CC[C@@H](O)C6)n5)CC4)CC3)n21 [compound 48] | 2.4
C[C@@]1(Cc2ccc(C#N)cc2)C(=O)N(c2cc(Cl)cc(Cl)c2)c2ncc(C(=O)NC3(C(=O)NC4(c5cc(C(=O)NCc6ccccc6)ccn5)CC4)CC3)n21 [compound 24] | 4.1
C[C@@]1(Cc2ccc(C#N)cc2)C(=O)N(c2cc(Cl)cc(Cl)c2)c2ncc(C(=O)NC3(C(=O)NC4(c5cccc(C(=O)N6CCC(C(N)=O)CC6)n5)CC4)CC3)n21 [compound 170] | 0.28
C[C@@]1(Cc2ccc(C#N)cc2)C(=O)N(c2cc(Cl)cc(Cl)c2)c2ncc(C(=O)NC3(C(=O)NC4(c5cc(C(=O)NC6CCC6)ccn5)CC4)CC3)n21 [compound 114] | 0.84
C[C@@]1(Cc2ccc(C#N)cc2)C(=O)N(c2cc(Cl)cc(Cl)c2)c2ncc(C(=O)NC3(C(=O)NC4(c5ccc(C(=O)NCCn6ccnc6)cn5)CC4)CC3)n21 [compound 109] | 0.41
C[C@@]1(Cc2ccc(C#N)cc2)C(=O)N(c2cc(Cl)cc(Cl)c2)c2ncc(C(=O)NC3(C(=O)NC4(c5ccc(C(=O)N6CCC(CO)CC6)cn5)CC4)CC3)n21 [compound 85] | 0.34
C[C@@H](NC(=O)c1ccnc(C2(NC(=O)C3(NC(=O)c4cnc5n4[C@](C)(Cc4ccc(C#N)cc4)C(=O)N5c4cc(Cl)cc(Cl)c4)CC3)CC2)c1)c1ccccc1 [compound 53] | 2.4
C[C@@]1(Cc2ccc(C#N)cc2)C(=O)N(c2cc(Cl)cc(Cl)c2)c2ncc(C(=O)NC3(C(=O)NC4(c5cccc(C(=O)N6CCCC(CO)C6)n5)CC4)CC3)n21 (some centres unmarked) [compound 161] | 0.75
CC(NC(=O)c1ccnc(C2(NC(=O)C3(NC(=O)c4cnc5n4[C@](C)(Cc4ccc(C#N)cc4)C(=O)N5c4cc(Cl)cc(Cl)c4)CC3)CC2)c1)c1cccnc1 (some centres unmarked) [compound 139] | 0.99
C[C@@H](O)CNC(=O)c1ccc(C2(NC(=O)C3(NC(=O)c4cnc5n4[C@](C)(Cc4ccc(C#N)cc4)C(=O)N5c4cc(Cl)cc(Cl)c4)CC3)CC2)nc1 [compound 128] | 0.47
C[C@@]1(Cc2ccc(C#N)cc2)C(=O)N(c2cc(Cl)cc(Cl)c2)c2ncc(C(=O)NC3(C(=O)NC4(c5ccc(C(=O)NCCc6cccnc6)cn5)CC4)CC3)n21 [compound 84] | 0.53
C[C@@]1(Cc2ccc(C#N)cc2)C(=O)N(c2cc(Cl)cc(Cl)c2)c2ncc(C(=O)NC3(C(=O)NC4(c5ccc(C(=O)N6CCCCC6CO)cn5)CC4)CC3)n21 (some centres unmarked) [compound 137] | 0.68
CN1CCN(C(=O)c2cccc(C3(NC(=O)C4(NC(=O)c5cnc6n5[C@](C)(Cc5ccc(C#N)cc5)C(=O)N6c5cc(Cl)cc(Cl)c5)CC4)CC3)n2)CC1 [compound 157] | 0.52
C[C@@]1(Cc2ccc(C#N)cc2)C(=O)N(c2cc(Cl)cc(Cl)c2)c2ncc(C(=O)NC3(C(=O)NC4(c5ccc(C(=O)N6CC[C@H](O)C6)cn5)CC4)CC3)n21 [compound 130] | 0.74

SMILES | IC50 [nM]
C[C@@]1(Cc2ccc(C#N)cc2)C(=O)N(c2cc(Cl)cc(Cl)c2)c2ncc(C(=O)NC3(C(=O)NC4(c5ccc(C(=O)N6CCC[C@@H]6C(N)=O)cn5)CC4)CC3)n21 [compound 163] | 0.65
C[C@@]1(Cc2ccc(C#N)cc2)C(=O)N(c2cc(Cl)cc(Cl)c2)c2ncc(C(=O)NC3(C(=O)NC4(c5cc(C(=O)N6CC(O)C6)ccn5)CC4)CC3)n21 [compound 87] | 0.98
CC(=O)N1CCN(C(=O)c2cccc(C3(NC(=O)C4(NC(=O)c5cnc6n5[C@](C)(Cc5ccc(C#N)cc5)C(=O)N6c5cc(Cl)cc(Cl)c5)CC4)CC3)n2)CC1 [compound 22] | 2.1
C[C@@]1(Cc2ccc(OC(F)(F)F)cc2)C(=O)N(c2cc(Cl)cc(Cl)c2)c2ncc(C(=O)NC3(C(=O)NC4(c5ccc(C(N)=O)cn5)CC4)CC3)n21 [compound 94] | 1.5
C[C@@]1(Cc2ccc(C#N)cc2)C(=O)N(c2cc(Cl)cc(Cl)c2)c2ncc(C(=O)NC3(C(=O)NC4(c5ccc(C(=O)NCC(O)CO)cn5)CC4)CC3)n21 (some centres unmarked) [compound 133] | 1.4
C[C@@]1(Cc2ccc(C#N)cc2)C(=O)N(c2cc(Cl)cc(Cl)c2)c2ncc(C(=O)NC3(C(=O)NC4(c5cc(C(=O)N6CC[C@H](O)C6)ccn5)CC4)CC3)n21 [compound 103] | 0.75
CC(=O)NC1CCN(C(=O)c2cccc(C3(NC(=O)C4(NC(=O)c5cnc6n5[C@](C)(Cc5ccc(C#N)cc5)C(=O)N6c5cc(Cl)cc(Cl)c5)CC4)CC3)n2)C1 (some centres unmarked) [compound 15] | 1.5
C[C@@]1(Cc2ccc(C#N)cc2)C(=O)N(c2cc(Cl)cc(Cl)c2)c2ncc(C(=O)NC3(C(=O)NC4(c5cc(C(=O)N6CCN(S(C)(=O)=O)CC6)ccn5)CC4)CC3)n21 [compound 89] | 1.4
C[C@@]1(Cc2ccc(C#N)cc2)C(=O)N(c2cc(Cl)cc(Cl)c2)c2ncc(C(=O)NC3(C(=O)NC4(c5ccc(C(=O)N6CCOCC6)cn5)CC4)CC3)n21 [compound 42] | 0.35
C[C@@]1(Cc2ccc(C#N)cc2)C(=O)N(c2cc(Cl)cc(Cl)c2)c2ncc(C(=O)NC3(C(=O)NC4(c5ccc(C(=O)N6CCCC(C(N)=O)C6)cn5)CC4)CC3)n21 (some centres unmarked) [compound 101] | 0.42
C[C@@]1(Cc2ccc(C#N)cc2)C(=O)N(c2cc(Cl)cc(Cl)c2)c2ncc(C(=O)NC3(C(=O)NC4(c5cc(C(=O)NCCO)ccn5)CC4)CC3)n21 [compound 4] | 0.92
CN1CCN(C(=O)c2ccc(C3(NC(=O)C4(NC(=O)c5cnc6n5[C@](C)(Cc5ccc(C#N)cc5)C(=O)N6c5cc(Cl)cc(Cl)c5)CC4)CC3)nc2)CC1 [compound 37] | 2.4
C[C@@]1(Cc2ccc(C#N)cc2)C(=O)N(c2cc(Cl)cc(Cl)c2)c2ncc(C(=O)NC3(C(=O)NC4(c5cc(C(=O)NCC(=O)O)ccn5)CC4)CC3)n21 [compound 131] | 0.45
C[C@@]1(Cc2ccc(C#N)cc2)C(=O)N(c2cc(Cl)cc(Cl)c2)c2ncc(C(=O)NC3(C(=O)NC4(c5cccc(C(=O)NCc6cccnc6)n5)CC4)CC3)n21 [compound 162] | 2.3
CC(CO)NC(=O)c1ccnc(C2(NC(=O)C3(NC(=O)c4cnc5n4[C@](C)(Cc4ccc(C#N)cc4)C(=O)N5c4cc(Cl)cc(Cl)c4)CC3)CC2)c1 (some centres unmarked) [compound 120] | 0.75
C[C@@]1(Cc2ccc(C#N)cc2)C(=O)N(c2cc(Cl)cc(Cl)c2)c2ncc(C(=O)NC3(C(=O)NC4(c5cc(C(=O)NCCC(N)=O)ccn5)CC4)CC3)n21 [compound 107] | 0.3
C[C@@]1(Cc2ccc(C#N)cc2)C(=O)N(c2cc(Cl)cc(Cl)c2)c2ncc(C(=O)NC3(C(=O)NC4(c5cccc(C(=O)NCCC(N)=O)n5)CC4)CC3)n21 [compound 57] | 0.82
CCN(CC)C(=O)c1ccnc(C2(NC(=O)C3(NC(=O)c4cnc5n4[C@](C)(Cc4ccc(C#N)cc4)C(=O)N5c4cc(Cl)cc(Cl)c4)CC3)CC2)c1 [compound 138] | 0.67
C[C@@H](NC(=O)c1ccc(C2(NC(=O)C3(NC(=O)c4cnc5n4[C@](C)(Cc4ccc(C#N)cc4)C(=O)N5c4cc(Cl)cc(Cl)c4)CC3)CC2)nc1)C(N)=O [compound 102] | 0.37
COCCNC(=O)c1ccc(C2(NC(=O)C3(NC(=O)c4cnc5n4[C@](C)(Cc4ccc(C#N)cc4)C(=O)N5c4cc(Cl)cc(Cl)c4)CC3)CC2)nc1 [compound 41] | 0.14
CN(CCO)C(=O)c1ccnc(C2(NC(=O)C3(NC(=O)c4cnc5n4[C@](C)(Cc4ccc(C#N)cc4)C(=O)N5c4cc(Cl)cc(Cl)c4)CC3)CC2)c1 [compound 34] | 0.7
C[C@@]1(Cc2ccc(C#N)cc2)C(=O)N(c2cc(Cl)cc(Cl)c2)c2ncc(C(=O)NC3(C(=O)NC4(c5ccc(C(=O)N6CC[C@@H](O)C6)cn5)CC4)CC3)n21 [compound 5] | 0.59
CN(C)C(=O)c1ccc(C2(NC(=O)C3(NC(=O)c4cnc5n4[C@](C)(Cc4ccc(C#N)cc4)C(=O)N5c4cc(Cl)cc(Cl)c4)CC3)CC2)nc1 [compound 124] | 2.1
